Source: patent US11673889B2, “Substituted imidazo[4,5-c][1,8]naphthyridines as phosphodiesterase inhibitors” (Nanjing Zhengxiang Pharmaceuticals Co., Ltd., priority 2019, dated 2023)

Key:
human soluble ENPP1 [1] = target: T1, human soluble ENPP1 (Homo sapiens, UniProt P22413); test: ENPP1 activity assay using p-Nitrophenyl-5′-AMP as a substrate; format: biochemical
T1 construct: 20 ng of human soluble ENPP1
T1 sequence (P22413 103-925 limits assumed): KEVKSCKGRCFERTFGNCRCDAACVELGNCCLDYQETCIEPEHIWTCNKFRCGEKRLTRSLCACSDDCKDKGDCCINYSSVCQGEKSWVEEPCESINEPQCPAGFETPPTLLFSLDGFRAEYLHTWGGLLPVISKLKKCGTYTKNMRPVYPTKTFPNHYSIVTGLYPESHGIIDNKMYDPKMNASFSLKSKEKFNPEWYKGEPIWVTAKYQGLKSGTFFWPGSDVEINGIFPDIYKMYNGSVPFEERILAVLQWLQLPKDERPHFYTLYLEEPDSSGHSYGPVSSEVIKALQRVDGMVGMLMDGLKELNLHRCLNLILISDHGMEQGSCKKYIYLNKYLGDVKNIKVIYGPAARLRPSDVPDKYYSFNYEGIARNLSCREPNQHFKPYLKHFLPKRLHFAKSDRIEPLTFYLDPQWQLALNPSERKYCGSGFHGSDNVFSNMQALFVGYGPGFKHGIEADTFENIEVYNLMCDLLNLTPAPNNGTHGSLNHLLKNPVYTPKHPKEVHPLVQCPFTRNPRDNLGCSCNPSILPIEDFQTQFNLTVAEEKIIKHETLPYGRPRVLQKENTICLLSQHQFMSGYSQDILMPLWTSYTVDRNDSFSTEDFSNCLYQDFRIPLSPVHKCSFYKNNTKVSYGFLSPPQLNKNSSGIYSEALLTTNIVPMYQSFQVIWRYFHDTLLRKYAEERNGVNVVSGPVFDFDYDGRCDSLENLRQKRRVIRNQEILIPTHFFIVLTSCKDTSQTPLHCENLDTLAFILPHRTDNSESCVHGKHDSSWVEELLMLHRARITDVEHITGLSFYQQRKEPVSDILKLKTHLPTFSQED
Method in brief: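 Absorbance at 405 nm tracks p-nitrophenol from AMP-pNP hydrolysis after 1 h at room temperature, substrate added as 3 mM (2× final) following 30 min enzyme–compound preincubation. Enzyme: 35 ng human soluble ENPP1. IC50 fitted (variable-slope four-parameter) from percent inhibition normalized to max and blank.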

ENPP-1, MDA-MB-231 cells = target: T2, ENPP-1, MDA-MB-231 cells (Homo sapiens, UniProt P22413); test: cell-based; conditions: for inhibition at 20 µM: MDA-MB-231, read-out: % Inhibition (at 20 μM)
T2 sequence (P22413 1-925): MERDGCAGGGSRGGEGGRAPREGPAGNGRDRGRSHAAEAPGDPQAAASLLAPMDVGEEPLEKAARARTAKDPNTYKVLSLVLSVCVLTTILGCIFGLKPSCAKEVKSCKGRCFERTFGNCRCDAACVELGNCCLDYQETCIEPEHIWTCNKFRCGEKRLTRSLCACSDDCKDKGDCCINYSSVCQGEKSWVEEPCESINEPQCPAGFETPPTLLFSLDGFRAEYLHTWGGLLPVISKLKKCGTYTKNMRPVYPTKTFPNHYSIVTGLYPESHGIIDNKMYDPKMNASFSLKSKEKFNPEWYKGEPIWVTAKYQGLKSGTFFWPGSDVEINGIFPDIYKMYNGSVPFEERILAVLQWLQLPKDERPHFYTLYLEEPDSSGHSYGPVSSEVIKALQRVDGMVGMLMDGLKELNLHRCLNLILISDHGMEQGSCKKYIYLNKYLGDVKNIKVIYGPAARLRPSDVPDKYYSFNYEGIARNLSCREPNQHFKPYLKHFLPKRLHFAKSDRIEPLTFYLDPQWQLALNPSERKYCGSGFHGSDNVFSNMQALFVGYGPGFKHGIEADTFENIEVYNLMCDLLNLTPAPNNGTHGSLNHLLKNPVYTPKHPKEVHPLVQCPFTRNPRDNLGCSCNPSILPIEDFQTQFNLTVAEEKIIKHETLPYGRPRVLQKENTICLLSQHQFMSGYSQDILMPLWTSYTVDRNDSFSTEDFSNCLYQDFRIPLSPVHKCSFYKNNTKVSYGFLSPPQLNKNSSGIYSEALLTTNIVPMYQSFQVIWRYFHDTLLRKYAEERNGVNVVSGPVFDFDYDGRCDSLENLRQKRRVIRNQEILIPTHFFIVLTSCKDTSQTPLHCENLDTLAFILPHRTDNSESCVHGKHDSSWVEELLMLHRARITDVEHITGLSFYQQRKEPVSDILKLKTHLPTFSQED

human soluble ENPP1 [2] = target: T1, human soluble ENPP1; test: ENPP1 activity assay using p-Nitrophenyl-5′-TMP as a substrate; format: biochemical
Method in brief: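 Percent inhibition, set against uninhibited-enzyme and blank wells, was fitted to a four-parameter variable-slope model for IC50. Chromogenic read-out was p-nitrophenol released from TMP-pNP, added as a 2 mM […] solution for 1 h at RT. Before that, 20 ng soluble ENPP1 sat 30 min with compound.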

[3] = substrate TMP-pNP, 20 ng human soluble ENPP1, Tris buffer pH 9.5, read-out: TMP-pNP (IC50)

| Structure (SMILES) | IC50 (human soluble ENPP1 [1]) [nM] | IC50 (ENPP-1, MDA-MB-231 cells) [nM] | inhibition at 20 µM (ENPP-1, MDA-MB-231 cells) [%] | IC50 (human soluble ENPP1 [2]) [nM] | IC50 (human soluble ENPP1 [2]; [3]) [nM] |
| --- | --- | --- | --- | --- | --- |
| COc1ccc2c(ncc3[nH]c(=O)n(Cc4ccc(S(N)(=O)=O)cn4)c32)n1 [Compound 99, 6-((7-methoxy-2-oxo-2,3-dihydro-1H-imidazo[4,5-c][1,8]naphthyridin-1-yl)methyl)pyridine-3-sulfonamide] | 0.79 | 600 | 77 | 0.27 |  |
| COc1ccc2c(ncc3[nH]c(=O)n(Cc4c(F)cc(B(O)O)cc4F)c32)n1 [Compound 111, (3,5-difluoro-4-((7-methoxy-2-oxo-2,3-dihydro-1H-imidazo[4,5-c][1,8]naphthyridin-1-yl)methyl)phenyl)boronic acid] | 21 | 0.31 | 80 |  | 7.4 |
| COc1ccc2c(n1)nc(C)c1ncn(Cc3ccc(S(N)(=O)=O)c(F)c3)c12 [Compound 88, 2-fluoro-4-((7-methoxy-4-methyl-1H-imidazo[4,5-c][1,8]naphthyridin-1-yl)methyl)benzenesulfonamide] | 12 | 2200 | 81 | 4 |  |
| COCCc1nc2c(C)nc3nc(OC)ccc3c2n1Cc1cc(F)c(S(N)(=O)=O)cc1F [Compound 93, 2,5-difluoro-4-((7-methoxy-2-(2-methoxyethyl)-4-methyl-1H-imidazo[4,5-c][1,8]naphthyridin-1-yl)methyl)benzenesulfonamide] | 13 | 2200 | 74 | 3.7 |  |
| COc1ccc2c(ncc3nc(C)n(Cc4ccc(S(=O)(=O)NC(C)=O)c(F)c4)c32)n1 [Compound 76, N-((2-fluoro-4-((7-methoxy-2-methyl-1H-imidazo[4,5-c][1,8]naphthyridin-1-yl)methyl)phenyl)sulfonyl)acetamide] | 26 | 6900 | 51 |  | 13 |
| COc1ccc2c(n1)nc(C)c1nc(CN(C)C)n(Cc3cc(F)c(S(N)(=O)=O)cc3F)c12 [Compound 92, 4-((2-((dimethylamino)methyl)-7-methoxy-4-methyl-1H-imidazo[4,5-c][1,8]naphthyridin-1-yl)methyl)-2,5-difluorobenzenesulfonamide] | 29 | 4100 | 68 | 9.3 |  |
| COc1ccc2c(ncc3nc(C4CCOCC4)n(Cc4ccc(S(N)(=O)=O)cn4)c32)n1 [Compound 75, 6-((7-methoxy-2-(tetrahydro-2H-pyran-4-yl)-1H-imidazo[4,5-c][1,8]naphthyridin-1-yl)methyl)pyridine-3-sulfonamide] | 0.68 | 310 | 81 | 0.24 |  |

Further lines, results first:

| IC50 (human soluble ENPP1 [1]) [nM] | IC50 (ENPP-1, MDA-MB-231 cells) [nM] | inhibition at 20 µM (ENPP-1, MDA-MB-231 cells) [%] | IC50 (human soluble ENPP1 [2]) [nM] | IC50 (human soluble ENPP1 [2]; [3]) [nM] | Structure (SMILES) |
| --- | --- | --- | --- | --- | --- |
| 5 | 250 | 72 |  | 1.1 | COc1ccc2c(n1)nc(C)c1[nH]c(=O)n(Cc3c(F)cc(S(N)(=O)=O)cc3F)c12 [Compound 113, 3,5-difluoro-4-((7-methoxy-4-methyl-2-oxo-2,3-dihydro-1H-imidazo[4,5-c][1,8]naphthyridin-1-yl)methyl)benzenesulfonamide] |
| 1.8 | 1800 | 68 | 0.38 |  | COc1ccc2c(ncc3cnn(Cc4ccc(S(N)(=O)=O)cc4)c32)n1 [Compound 116, 4-((7-methoxy-1H-pyrazolo[4,3-c][1,8]naphthyridin-1-yl)methyl)benzenesulfonamide] |
| 2.4 | 1800 | 66 |  | 0.61 | COc1ccc2c(c1)nnc1[nH]c(=O)n(Cc3ccc(S(N)(=O)=O)cc3F)c12 [Compound 123, 3-fluoro-4-((7-methoxy-2-oxo-2,3-dihydro-1H-imidazo[4,5-c]cinnolin-1-yl)methyl)benzenesulfonamide] |
| 0.74 |  | 87 |  | 0.33 | COCCn1c(=O)n(Cc2c(F)cc(S(N)(=O)=O)cc2F)c2c3ccc(OC)nc3ncc21 [Compound 132, 3,5-difluoro-4-((7-methoxy-3-(2-methoxyethyl)-2-oxo-2,3-dihydro-1H-imidazo[4,5-c][1,8]naphthyridin-1-yl)methyl)benzenesulfonamide] |
